Data published in patent US10155738B2, “Methods for skin whitening using a gallotannin” (RHODE ISLAND BOARD OF EDUCATION, STATE OF RHODE ISLAND & …, priority 2014, dated 2018).

Experiments:
[1] = target: mushroom tyrosinase; assay: Tyrosinase enzyme inhibition assay; format: biochemical; details: pure compounds; mean ± S.D., triplicate independent experiments
Method: Maplifa was prepared by new methods developed in the laboratory. Briefly, leaves of red maple were dried and macerated in aqueous ethanol to obtain the crude extract which was then further purified on a resin column to remove chlorophyll and other plant pigments.

[2] = system: B16F10 cells; assay: MTS cell viability assay; format: cell-based, murine; details: 72 h; for B16F10 cell viability: vs untreated control
Method: To further investigate the anti-melanogenic activities of ginnalinginnalins A-C, present in the Maplifa extract, cellular based assay were employed to measure the melanin content on murine melanoma B16F10 cells. In order to determine the non-toxic concentrations of ginnalinginnalins for cellular assays, cell viability on B16F10 cells were first evaluated by using MTS assay. The MTS assay was carried out as described previously with modifications. At the end of either 24, 48 or 72 h of treatment with test samples (in the concentration range of 1-100 μM for purified gallotannins and 6.25-200 μg/mL for Maplifa extract), 20 μL of the MTS reagent, in combination with the electron coupling agent, phenazine menthosulfate, were added to the wells and cells were incubated at 37° C. in a humidified incubator for 3 h. Absorbance at 490 nm was monitored with a spectrophotometer (SpectraMax M2, Molecular Devices Corp., operated by SoftmaxPro v.4.6 software, CA, USA) to obtain the number of cells relative to control populations. […] Data was presented as mean values±S.D. and were obtained from three separate experiments. Two-tailed unpaired student's t-test was used for statistical analysis of the data using the Office Excel 2010 software. A p value <0.05 was considered significant.
Murine melanoma B16F10 was purchased from the American Type Culture Collection (Rockville, Md.). Cells were cultured in Dulbecco's Modified Eagle Medium (DMEM) medium (Wilkem Scientific, R.I.) that was supplemented with 10% v/v fetal bovine serum, 1% v/v nonessential amino acids and 1% v/v antibiotic solution at 37° C. in 5% CO2. Samples were dissolved at a concentration of 50 mg/mL in dimethylsulfoxide (DMSO) as stock solution and then diluted to the desired final concentrations with growth medium. […]
Melanoma B16F10 cells were treated with serial concentrations of Maplifa (6.25, 12.5, 25, 50, 100, and 200 μg/mL) for 48 and 72 h. In addition, various concentrations (0, 5, 10, 25, and 50 μM) of ginnalinginnalins A-C for 72 h and the cell viabilities were determined by comparing with the untreated control group. […]

[3] = system: B16F10 cells; assay: Melanin content in B16F10 cells; format: cell-based, murine; details: for melanin content compared to control group: 72 h
Method: The contents of biosynthesized melanin in melanoma B16F10 cells that treated with ginnalinginnalins A-C at serial concentrations were evaluated by comparing with the control group. The melanin content was determined using a modification of the method described by Liang and Ho. Briefly, B16F10 cells (5×10^4 cells/well) were first seeded in 24-well plates for 24 h and then medium was changed with new DMEM medium containing test samples of various concentrations. After 72 h incubation, the cells were harvested through trypsinization and washed with phosphate-buffered saline (PBS) twice. Then cells were lyzed with 1 N NaOH containing 10% DMSO and heated at 80° C. for 1 h. After samples cooled down to room temperature, the amount of melanin content was spectrophotometrically measured at 400 nm.

[4] = system: TRP-2; assay: mRNA expression by real-time PCR in B16F10 cells; format: cell-based, murine; details: 10 μM, 48 h and 72 h
Method: (§1) Melanin biosynthesis involves multi-step pathways. In order to determine the molecular mechanisms of inhibitory effects of ginnalins on melanin synthesis, expression levels of melanogenesis related genes, including MITF, TYR, TRP-1 and TRP-2, in B16F10 cells were analyzed by using RT-PCR. The B16F10 cells were planted in 6-well plates at a density of 2.0×10^5 cells/well. After being incubated for 24 h, cells were treated with 2 or 10 μM of ginnalins for 48 or 72 h. Total RNA was isolated from cells using TRIzol reagent (Invitrogen) according to the manufacturer's instructions. One microgram of total RNA was converted to single-stranded cDNA using oligo(dT)18 primers, and mRNA levels were quantified by quantitative real-time PCR using a Roche LightCycler detection system (Roche Applied Science, Mannheim, Germany). Samples were run by using SYBR Green and compared with levels of b2m rRNA as a reference housekeeping gene. Quantitative real-time PCR conditions were optimized for each gene using appropriate forward and reverse primers. The primers used are listed in Supplemental material. All oligonucleotides were synthesized by Invitrogen Inc., CA.

[5] = system: TYR; assay: mRNA expression by real-time PCR in B16F10 cells; format: cell-based, murine; details: 10 μM; for TYR mRNA expression: 48 h and 72 h
Method: as §1

[6] = system: MITF; assay: mRNA expression by real-time PCR in B16F10 cells; format: cell-based, murine; details: 10 μM, 48 h and 72 h
Method: as §1

[7] = system: TRP-1; assay: mRNA expression by real-time PCR in B16F10 cells; format: cell-based, murine; details: 10 μM, 48 h and 72 h
Method: as §1

[8] = system: TRP-2; assay: Protein expression by Western blot in B16F10 cells; format: cell-based, murine; details: 10 μM, 72 hours
Method: Furthermore, the regulation of ginnalins on the protein expressions of melanogenesis related enzymes in B16F10 cells were evaluated by using Western blot. Expressions of melanin biosynthesis-related proteins, including MITF, TYR, TRP-1 and TRP-2 expression in B16F10 cells were measured by western blot. After incubation with ginnalins for 72 h, proteins from cells were resolved by SDS-PAGE and then transferred to polyvinylidene fluoride membrane. The membrane was blocked with 5% nonfat dry milk in Tris-buffered saline with Tween followed by incubation with primary antibodies overnight. Bands were visualized on X-ray film using an ECL detection kit (Amersham Biosciences, Piscataway, N.J.). A list of antibody, source, and dilution is listed in Supplementary material.

| Structure (SMILES) | IC50 [1] [µM] | B16F10 cell viability ([2]; 25 μM) [%] | B16F10 cell viability ([2]; 50 μM) [%] | toxicity to B16F10 cells ([2]; low concentrations (5 and 10 μM)) | melanin content compared to control group ([3]; 25 μM) [%] | effect on melanin content ([3]; 50 μM) | melanin content compared to control group ([3]; 50 μM) [%] | TRP-2 mRNA expression [4] | TYR mRNA expression [5] | MITF mRNA expression [6] | TRP-1 mRNA expression [7] | decrease of TRP-2 protein expression [8] [%] | anti-melanogenic effects in B16F10 cells [3] | decrease of TYR mRNA expression ([5]; 48 hours) [%] | decrease of TYR mRNA expression ([5]; 72 hours) [%] |
| --- | --- | --- | --- | --- | --- | --- | --- | --- | --- | --- | --- | --- | --- | --- | --- |
| OC[C@H]1O[C@@H](Oc2ccc(O)cc2)[C@H](O)[C@@H](O)[C@@H]1O [Arbutin, reference compound] | 63 ± 0.3 |  |  |  |  |  |  |  |  |  |  |  |  |  |  |
| O=C(OC[C@H]1OC[C@H](OC(=O)c2cc(O)c(O)c(O)c2)[C@@H](O)[C@@H]1O)c1cc(O)c(O)c(O)c1 [Ginnalin A] | 182 | 87.0 | 89.5 | non-toxic | 79.1 | clearly reduced | 56.7 | significantly reduced | significantly reduced | significantly reduced | significantly reduced | 87.9 |  |  |  |
| O=C(OC[C@H]1OC[C@H](O)[C@@H](O)[C@@H]1O)c1cc(O)c(O)c(O)c1 [Ginnalin B] | 1050 |  |  |  | 90.0 |  | 90.0 | significantly decreased |  | significantly decreased | significantly decreased | 92.0 | only minor anti-melanogenic effects | 10.0 | 7.5 |
| O=C(O[C@H]1CO[C@H](CO)[C@@H](O)[C@@H]1O)c1cc(O)c(O)c(O)c1 [Ginnalin C] | 858 |  |  |  | 89.7 |  | 68.8 | only slightly decreased | only slightly decreased | significantly down-regulated | did not reduce | 69.5 | only minor anti-melanogenic effects |  |  |
